Measurements reported in patent publication US20240150293A1, “SPIROCYCLOHEXANE DERIVATIVES, PHARMACEUTICAL COMPOSITIONS CONTAINING THEM AND THEIR USES AS ANTI-APOPTOTIC INHIBITORS” (LES LABORATOIRES SERVIER, priority 2021, published 2024).
Where two headings read alike, the source gives them in different places.

How the values were obtained:
[1] = target: Cy5-labelled Mcl1 (amino acids 171-321) C286S protein (UniProtKB Q07820) (Homo sapiens (Human), UniProt Q07820, C286S); assay: Inhibition of Mcl-1 by the fluorescence quenching assay (Example A, Method B); format: binding
Outline: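 Eleven-point compound series incubated 2 h at room temperature with 1 nM Cy5-tagged protein and quencher-labelled PUMA peptide at 10, 20 or 400 nM in HEPES/NaCl/Tween 20, pH 7.4, 5% DMSO. IC50 for 50% fluorescence increase by 4-parameter fit, then Ki derived (complete cKi or estimated eKi).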

[2] = tested on: NCI-H929 cell lines; assay: In vitro cytotoxicity, CellTiter-Glo (CTG) assay (Example B, Method B); format: cell-based; details: NCI-H929 cells, 48 h incubation, read-out: C50
Experimental: Cellular viability was monitored with the cell viability assay (Cell Titer-Glo®) on NCI-H929 cell lines. The CellTiter-Glo® (CTG) Luminescent Cell Viability Assay (from Promega) is a homogeneous method to determine the number of viable cells in culture based on quantitation of the ATP present, which signals the presence of metabolically active cells.
Concentration response of test compounds are performed with 10 mM stock solutions (DMSO), 11-points curve, in a 384-well compound plate. The assay plate is prepared by stamping 120 nL from compound dilution plate of all different concentrations (e.g. 10 mM to have final 30 μM assay test) into a cell culture microplate, using Echo acoustic liquid handling (Labcyte, Beckman). 40 μl of cell solution is added and cells are incubated with compounds for 48 h at 37° C., 5% CO2. CTG was added to the cells (according to the manufacturer instructions) and luminescence intensity was recorded using the Pherastar plate reader (BMG).
This assay provides in vitro cellular efficacy of compounds of Formula (I) tested, measuring the C50, defined as the concentration needed to reach 50% of the cellular viability.

[3] = tested on: H929 multiple myeloma tumor line; assay: In vitro cytotoxicity, MTT assay (Example B, Method A); format: cell-based; details: H929 cells, 48 hours exposure, read-out: C50
Experimental: The cytotoxicity studies were carried out on the H929 multiple myeloma tumor line.
The cells are distributed onto microplates and exposed to the test compounds for 48 hours. The cell viability is then quantified by a colorimetric assay, the Microculture Tetrazolium Assay (Carmichael et al, Cancer Res. 1987, 47, 939-942).
The results are expressed in C50 which means concentration corresponding to […] of effect/inhibition.

Sequence of Cy5-labelled Mcl1 (amino acids 171-321) C286S protein (Q07820 171-321 C286S): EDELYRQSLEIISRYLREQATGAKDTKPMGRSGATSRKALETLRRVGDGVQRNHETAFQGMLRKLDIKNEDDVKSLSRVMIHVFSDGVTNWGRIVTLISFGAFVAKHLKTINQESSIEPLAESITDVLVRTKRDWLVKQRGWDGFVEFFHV

Row | Ki [1] [nM] | Structure (SMILES) | IC50 ([2]; Homo sapiens, NCI-H929, 48 h) [nM] | IC50 ([3]; Homo sapiens, NCI-H929, 48 h) [nM] | also measured
1 | 0.25 | C[C@@H](COc1ccnc2c1[C@H](C)CCC2)C[C@H]1Cc2c(Cl)c3c(cc2[C@]12CC[C@@](Nc1cccc(Cl)c1)(C(=O)O)CC2)OCO3 [Example 888, (1r,4S,6′S)-8′-chloro-4-(3-chloroanilino)-6′-[(2R)-2-methyl-3-{[(5R)-5-methyl-5,6,7,8-tetrahydroquinolin-4-yl]oxy}propyl]-6′,7′-dihydro-2′H-spiro[cyclohexane-1,5′-indeno[5,6-d][1,3]dioxole]-4-carboxylic acid] | 92.5 |  | 
2 | 0.00893 | C[C@@H](COc1ccnc2c1[C@H](C)CCC2)C[C@H]1Cc2cc3c(cc2[C@]12CC[C@@](Nc1cccc(Cl)c1)(C(=O)O)CC2)O[C@@H](C)CO3 [Example 972, (1r,3'S,4S,7′S)-4-(3-chloroanilino)-3′-methyl-7′-[(2R)-2-methyl-3-{[(5R)-5-methyl-5,6,7,8-tetrahydroquinolin-4-yl]oxy}propyl]-2′,3′,7′,8′-tetrahydrospiro[cyclohexane-1,6′-indeno[5,6-b][1,4]dioxine]-4-carboxylic acid] | 31 |  | 
3 | 0.00733 | C[C@@H](COc1ccnc2c1[C@H](C)CCC2)C[C@H]1Cc2cc3c(cc2[C@]12CC[C@@](Nc1cccc(Cl)c1)(C(=O)O)CC2)OCCCO3 [Example 837, (1r,4S,8′S)-4-(3-chloroanilino)-8′-[(2R)-2-methyl-3-{[(5R)-5-methyl-5,6,7,8-tetrahydroquinolin-4-yl]oxy}propyl]-3′,4′,8′,9′-tetrahydro-2′H-spiro[cyclohexane-1,7′-indeno[5,6-b][1,4]dioxepine]-4-carboxylic acid] | 31 |  | 
4 | 3.85 | COCc1ccc2c(c1)[C@]1(CC[C@@](Nc3cccc(Cl)c3)(C(=O)O)CC1)[C@H](C[C@@H](C)COc1ccnc3c1[C@H](C)CCC3)C2 [Example 920, (1r,2′R,4R)-4-(3-chloroanilino)-6′-(methoxymethyl)-2′-[(2R)-2-methyl-3-{[(5R)-5-methyl-5,6,7,8-tetrahydroquinolin-4-yl]oxy}propyl]-2′,3′-dihydrospiro[cyclohexane-1,1′-indene]-4-carboxylic acid] |  | 104 | 
5 | 52.5 | C[C@H]1Cc2nccc(OC[C@H](C)C[C@H]3Cc4ccccc4[C@]34CC[C@@](Nc3cccc(Cl)c3)(C(=O)O)CC4)c2[C@@H](C)C1 [Example 664, (1r,2′S,4S)-4-(3-chloroanilino)-2′-[(2R)-3-{[(5S,7R)-5,7-dimethyl-5,6,7,8-tetrahydroquinolin-4-yl]oxy}-2-methylpropyl]-2′,3′-dihydrospiro[cyclohexane-1,1′-indene]-4-carboxylic acid] |  | 3030 | 
6 | 1.23 | Cc1cccc2c1CC(C[C@@H](C)COc1ccnc3c1[C@H](C)CCC3)[C@]21CC[C@](Nc2cccc(Cl)c2)(C(=O)O)CC1 (single isomer, unassigned) [Example 754] |  | 96.6 | 
7 | 91.4 | C[C@@H]1CCCc2nccc(OCC(CC3Cc4ccccc4[C@]34CC[C@@](Nc3cccc(Cl)c3)(C(=O)O)CC4)C(F)F)c21 (single isomer, unassigned) [Example 520] |  |  | IC50 [3]: 10400 nM
8 | 1.75 | C[C@@H](COc1ccnc2c1[C@H](C)CCC2(F)F)C[C@H]1Cc2ccccc2[C@]12CC[C@@](Nc1cccc(Cl)c1)(C(=O)O)CC2 [Example 692, (1r,2′S,4S)-4-(3-chloroanilino)-2′-[(2R)-3-{[(5R)-8,8-difluoro-5-methyl-5,6,7,8-tetrahydroquinolin-4-yl]oxy}-2-methylpropyl]-2′,3′-dihydrospiro[cyclohexane-1,1′-indene]-4-carboxylic acid] |  | 132 | 
9 | 2.3 | C[C@@H](COc1ccnc2c1[C@H](C)CCC2)C[C@@H]1Cc2ccc(F)cc2[C@]12CC[C@@](Nc1cccc(Cl)c1)(C(=O)O)CC2 [Example 766, (1r,2′R,4R)-4-(3-chloroanilino)-6′-fluoro-2′-[(2R)-2-methyl-3-{[(5R)-5-methyl-5,6,7,8-tetrahydroquinolin-4-yl]oxy}propyl]-2′,3′-dihydrospiro[cyclohexane-1,1′-indene]-4-carboxylic acid] |  | 384 | 

Second part, the compound before the results:

Row | Structure (SMILES) | Ki [1] [nM] | IC50 ([2]; Homo sapiens, NCI-H929, 48 h) [nM] | IC50 ([3]; Homo sapiens, NCI-H929, 48 h) [nM] | also measured
10 | CC(C)C1COc2cc3c(cc2OC1)[C@]1(CC[C@@](Nc2cccc(Cl)c2)(C(=O)O)CC1)[C@@H](C[C@@H](C)COc1ccnc2c1[C@H](C)CCC2)C3 (single isomer, unassigned) [Example 992] | 0.0795 | 184 |  | 
11 | C[C@@H](COc1ccnc2c1[C@H](C)CC[C@H]2C)C[C@H]1Cc2cc3c(cc2[C@]12CC[C@@](Nc1cccc(Cl)c1)(C(=O)O)CC2)OCCO3 [Example 963, (1r,4S,7′S)-4-(3-chloroanilino)-7′-[(2R)-3-{[(5R,8R)-5,8-dimethyl-5,6,7,8-tetrahydroquinolin-4-yl]oxy}-2-methylpropyl]-2′,3′,7′,8′-tetrahydrospiro[cyclohexane-1,6′-indeno[5,6-b][1,4]dioxine]-4-carboxylic acid] | 0.0235 | 97.3 |  | 
12 | C[C@@H](COc1ccnc2c1[C@H](C)CCC2)C[C@H]1Cc2cc(Cl)c(OC3CCCC3)cc2[C@]12CC[C@@](Nc1cccc(Cl)c1)(C(=O)O)CC2 [Example 821, (1r,2′S,4S)-5′-chloro-4-(3-chloroanilino)-6′-(cyclopentyloxy)-2′-[(2R)-2-methyl-3-{[(5R)-5-methyl-5,6,7,8-tetrahydroquinolin-4-yl]oxy}propyl]-2′,3′-dihydrospiro[cyclohexane-1,1′-indene]-4-carboxylic acid] | 0.408 | 536 |  | 
13 | CCC1COc2cc3c(cc2OC1)[C@]1(CC[C@@](Nc2cccc(Cl)c2)(C(=O)O)CC1)[C@@H](C[C@@H](C)COc1ccnc2c1[C@H](C)CCC2)C3 (single isomer, unassigned) [Example 989] | 0.0288 |  |  | IC50 [2]: 88.5 nM
14 | C[C@@H](COc1ccnc2c1[C@H](C)CCC2)C[C@H]1Cc2cc3c(cc2[C@]12CC[C@@](Nc1cccc(Cl)c1)(C(N)=O)CC2)OCO3 [Example 954, (1r,4S,6′S)-4-(3-chloroanilino)-6′-[(2R)-2-methyl-3-{[(5R)-5-methyl-5,6,7,8-tetrahydroquinolin-4-yl]oxy}propyl]-6′,7′-dihydro-2′H-spiro[cyclohexane-1,5′-indeno[5,6-d][1,3]dioxole]-4-carboxamide] |  | 2790 |  | 
15 | CNC(=O)[C@]1(Nc2cccc(Cl)c2)CC[C@@]2(CC1)c1cc3c(cc1C[C@@H]2C[C@@H](C)COc1ccnc2c1[C@H](C)CCC2)OCO3 [Example 955, (1r,4S,6′S)-4-(3-chloroanilino)-N-methyl-6′-[(2R)-2-methyl-3-{[(5R)-5-methyl-5,6,7,8-tetrahydroquinolin-4-yl]oxy}propyl]-6′,7′-dihydro-2′H-spiro[cyclohexane-1,5′-indeno[5,6-d][1,3]dioxole]-4-carboxamide] |  | 11300 |  | 
16 | C[C@@H](COc1ccnc2c1[C@H](C)CCC2)C[C@H]1Cc2cc3c(cc2[C@]12CC[C@@](Nc1cccc(Cl)c1)(C(=O)N(C)C)CC2)OCO3 [Example 956, (1r,4S,6′S)-4-(3-chloroanilino)-N,N-dimethyl-6′-[(2R)-2-methyl-3-{[(5R)-5-methyl-5,6,7,8-tetrahydroquinolin-4-yl]oxy}propyl]-6′,7′-dihydro-2′H-spiro[cyclohexane-1,5′-indeno[5,6-d][1,3]dioxole]-4-carboxamide] |  | 14500 |  | 
17 | C[C@@H](COc1ccncc1C(F)(F)F)C[C@H]1Cc2ccccc2[C@]12CC[C@@](Nc1cccc(Cl)c1)(C(=O)O)CC2 [Example 578, (1r,2′S,4S)-4-(3-chloroanilino)-2′-[(2R)-2-methyl-3-{[3-(trifluoromethyl)pyridin-4-yl]oxy}propyl]-2′,3′-dihydrospiro[cyclohexane-1,1′-indene]-4-carboxylic acid] | 7.84 |  | 471 | 
18 | O=C(O)[C@]1(Nc2cccc(Cl)c2)CC[C@@]2(CC1)c1ccccc1CN2CCCOc1ccnc2ccsc12 [Example 36, (1s,4s)-4-(3-chloroanilino)-2′-{3-[(thieno[3,2-b]pyridin-7-yl)oxy]propyl}-2′,3′-dihydrospiro[cyclohexane-1,1′-isoindole]-4-carboxylic acid] |  |  | 18500 | Ki ([1]; Ki determined from IC50): 749 nM
19 | O=C(O)[C@]1(Nc2cccc(Cl)c2)CC[C@@]2(CC1)c1ccccc1CC2CC(COc1ccnc2c1CCC2)COc1ccnc2c1CCC2 (single isomer, unassigned) [Example 497, (1r,4r)-4-(3-chloroanilino)-2′-(3-[(6,7-dihydro-5H-cyclopenta[b]pyridin-4-yl)oxy]-2-{[(6,7-dihydro-5H-cyclopenta[b]pyridin-4-yl)oxy]methyl}propyl)-2′,3′-dihydrospiro[cyclohexane-1,1′-indene]-4-carboxylic acid] | 1.34 |  |  | IC50 [3]: 1220 nM
